Measured values as given in patent US20150031668A1, “CHROMAN DERIVATIVES AS TRPM8 INHIBITORS” (AMGEN INC., priority 2013, published 2015).

What was measured:
[1] = target: T1, human TRPM8 (Homo sapiens, UniProt Q7Z2W7); experiment: Luminescence readout assay for measuring intracellular calcium (aequorin, CHO cells expressing human TRPM8; icilin, L-menthol or cold activation); format: cell-based; conditions: CHO cells expressing human TRPM8, icilin activation (1 μM), aequorin luminescence; read-out: hTRPM8 IC50
T1 construct: expressed in transfected cells; host or cells: Chinese hamster ovary (CHO) cells, T-REx tetracycline-inducible expression system (Invitrogen); co-transfected with pcDNA3.1 aequorin
T1 sequence (Q7Z2W7 whole entry): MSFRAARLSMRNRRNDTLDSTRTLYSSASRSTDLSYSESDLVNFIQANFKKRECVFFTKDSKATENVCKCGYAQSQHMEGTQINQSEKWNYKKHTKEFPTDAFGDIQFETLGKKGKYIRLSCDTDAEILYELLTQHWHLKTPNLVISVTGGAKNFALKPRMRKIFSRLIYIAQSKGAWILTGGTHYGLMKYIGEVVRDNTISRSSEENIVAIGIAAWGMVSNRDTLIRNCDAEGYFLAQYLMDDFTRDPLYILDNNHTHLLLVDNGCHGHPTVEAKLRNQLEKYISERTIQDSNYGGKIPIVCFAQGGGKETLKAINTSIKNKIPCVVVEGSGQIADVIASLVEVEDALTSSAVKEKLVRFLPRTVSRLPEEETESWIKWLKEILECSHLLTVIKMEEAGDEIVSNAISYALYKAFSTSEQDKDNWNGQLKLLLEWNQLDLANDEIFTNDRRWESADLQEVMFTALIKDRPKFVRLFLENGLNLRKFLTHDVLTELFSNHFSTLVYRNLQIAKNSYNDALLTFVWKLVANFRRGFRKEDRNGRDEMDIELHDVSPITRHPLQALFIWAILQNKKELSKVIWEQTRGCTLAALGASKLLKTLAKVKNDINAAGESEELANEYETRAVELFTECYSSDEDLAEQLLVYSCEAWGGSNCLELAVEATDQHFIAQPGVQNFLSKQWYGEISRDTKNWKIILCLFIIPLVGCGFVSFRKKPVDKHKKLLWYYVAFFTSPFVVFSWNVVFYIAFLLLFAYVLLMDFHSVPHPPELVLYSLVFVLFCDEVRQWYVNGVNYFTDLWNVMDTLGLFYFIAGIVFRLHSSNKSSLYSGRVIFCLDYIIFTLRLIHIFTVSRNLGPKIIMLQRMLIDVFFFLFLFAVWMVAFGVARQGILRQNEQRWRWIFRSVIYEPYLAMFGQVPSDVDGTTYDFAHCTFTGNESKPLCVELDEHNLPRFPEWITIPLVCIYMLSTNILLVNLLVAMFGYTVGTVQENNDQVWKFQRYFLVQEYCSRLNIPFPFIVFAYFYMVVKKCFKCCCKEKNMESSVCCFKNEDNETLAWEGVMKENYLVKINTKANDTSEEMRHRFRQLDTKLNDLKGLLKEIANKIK
In short: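 Activation was by 1 μM icilin, 100 μM L-menthol (test compound 2.5 min ahead) or cold buffer below 10° C (compound 1 min ahead). Calcium rise measured as aequorin luminescence in CHO cells with tetracycline-inducible human TRPM8.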

[2] = test system: icilin induced wet-dog shakes; experiment: Inhibition of icilin induced shaking (wet-dog shakes) in rats; format: in vivo, male Sprague Dawley rats; conditions: po; rat, dose 1 mg/kg
Protocol: Inhibition of Icilin Induced Shaking in Rats
Example compounds at doses ranging from 0.01 to 3 mg/kg (p.o, suspended in 5% Tween80/Oralplus or suspended in 2% HPMC-1% Tween-80 pH2.2 with MSA, 5 mL/kg) can be administered to male Sprague Dawley rats (200-300 g, Harlan, n=6-8/treatment) 2 h before icilin to assess the ability to block the spontaneous wet-dog shake phenomena induced by icilin (i.p., suspended in 100% PEG400 at 0.5 mg/kg, 1 mL/kg or p.o., suspended in 2% HPMC-1% Tween-80 at 3 mg/kg, 2.5 mL/kg). Spontaneous wet-dog shakes may be counted manually by two blinded observers or using LABORAS automation (Metris) for 30 min post-icilin. The synthesized and prophetic example compounds may be measured using these procedures and will be found to reduce the spontaneous wet dog shake phenomena induced by icilin.

Row | Compound | IC50 [1] [nM] | inhibition in vivo at 1 mg/kg [2] [%]
1 | O=C(N[C@]1(c2ccc(OC(F)(F)F)c(F)c2)CCOc2cccnc21)c1ccc2[nH]c(=O)oc2c1 (single isomer, unassigned) [Example 21] | 7 | 98
2 | O=C(N[C@]1(c2ccc(OC(F)(F)F)cc2)CCOc2cccnc21)c1ccc(=O)[nH]c1 (single isomer, unassigned) [Example 58] | 21 | 97
3 | O=C(N[C@]1(c2ccc(OC(F)(F)F)c(F)c2)CCOc2cccnc21)c1c[nH]c(=O)cn1 [Example 50, (S)-N-(4-(3-fluoro-4-(trifluoromethoxy)phenyl)-3,4-dihydro-2H-pyrano[3,2-b]pyridin-4-yl)-5-oxo-4,5-dihydropyrazine-2-carboxamide] | 8 | 67
4 | O=C(N[C@]1(c2ccc(OC(F)(F)F)c(F)c2)CCOc2cccnc21)c1ccc(=O)[nH]c1 [Example 59, (S)—N-(4-(3-fluoro-4-(trifluoromethoxy)phenyl)-3,4-dihydro-2H-pyrano[3,2-b]pyridin-4-yl)-6-oxo-1,6-dihydropyridine-3-carboxamide] | 13 | 99
5 | O=C(N[C@]1(c2ccc(C(F)(F)F)cc2)CCOc2cccnc21)c1ccc2oc(=O)[nH]c2c1 [Example 61, (S)-2-oxo-N-(4-(4-(trifluoromethyl)phenyl)-3,4-dihydro-2H-pyrano[3,2-b]pyridin-4-yl)-2,3-dihydrobenzo[d]oxazole-5-carboxamide] | 6 | 80
6 | O=C(O)c1ccc(C(=O)N[C@]2(c3ccc(OC(F)(F)F)c(F)c3)CCOc3cccnc32)nc1 [Example 75] | 14 | 99
7 | O=C(Nc1ncccn1)N[C@]1(c2ccc(OC(F)(F)F)c(F)c2)CCOc2cccnc21 [Example 83, (S)-1-(4-(3-fluoro-4-(trifluoromethoxy)phenyl)-3,4-dihydro-2H-pyrano[3,2-b]pyridin-4-yl)-3-(pyrimidin-2-yl)urea] | 28 | 59
8 | O=C(Nc1cncnc1)N[C@]1(c2ccc(OC(F)(F)F)c(F)c2)CCOc2cccnc21 [Example 85, (S)-1-(4-(3-fluoro-4-(trifluoromethoxy)phenyl)-3,4-dihydro-2H-pyrano[3,2-b]pyridin-4-yl)-3-(pyrimidin-5-yl)urea] | 12 | 72
9 | N#Cc1ccc(-c2ccc([C@@]3(NC(=O)c4ccc5oc(=O)[nH]c5c4)CCOc4cccnc43)cc2)cc1 [Example 155, (S)—N-(4-(4′-cyano-[1,1′-biphenyl]-4-yl)-3,4-dihydro-2H-pyrano[3,2-b]pyridin-4-yl)-2-oxo-2,3-dihydrobenzo[d]oxazole-5-carboxamide 2,2,2-trifluoroacetate] | 16 | 60
10 | O=C(N[C@]1(c2ccc(OC(F)(F)F)c(F)c2)CCOc2cccnc21)c1ccc(CO)cc1 [Example 158, (S)—N-(4-(3-fluoro-4-(trifluoromethoxy)phenyl)-3,4-dihydro-2H-pyrano[3,2-b]pyridin-4-yl)-4-(hydroxymethyl)benzamide] | 6 | 92
11 | O=C(N[C@]1(c2ccc(C(F)(F)F)c(F)c2)CCOc2cccnc21)c1ccc(=O)[nH]c1 [Example 170, (S)-N-(4-(3-fluoro-4-(trifluoromethyl)phenyl)-3,4-dihydro-2H-pyrano[3,2-b]pyridin-4-yl)-6-oxo-1,6-dihydropyridine-3-carboxamide] | 21 | 90
12 | O=C(O)c1ccc(C(=O)N[C@]2(c3ccc(OC(F)(F)F)c(F)c3)CCOc3cccnc32)cc1 [Example 204, (S)-4-((4-(3-fluoro-4-(trifluoromethoxy)phenyl)-3,4-dihydro-2H-pyrano[3,2-b]pyridin-4-yl)carbamoyl) benzoic acid] | 7 | 98
13 | O=C(N[C@]1(c2ccc(OC(F)(F)F)c(F)c2)CCOc2cccnc21)c1ccc(-c2noc(=O)[nH]2)cn1 [Example 283, (S)—N-(4-(3-fluoro-4-(trifluoromethoxy)phenyl)-3,4-dihydro-2H-pyrano[3,2-b]pyridin-4-yl)-5-(5-oxo-4,5-dihydro-1,2,4-oxadiazol-3-yl)picolinamide] | 44 | 78
14 | C=Cc1cc(C(=O)N[C@]2(c3ccc(OC(F)(F)F)c(F)c3)CCOc3cccnc32)ccc1C(=O)O [Example 289, (S)-4-((4-(3-fluoro-4-(trifluoromethoxy)phenyl)-3,4-dihydro-2H-pyrano[3,2-b]pyridin-4-yl)carbamoyl)-2-vinylbenzoic acid] | 18 | 93
15 | CCc1cc(C(=O)N[C@]2(c3ccc(OC(F)(F)F)c(F)c3)CCOc3cccnc32)ccc1C(=O)O [Example 291, (S)-2-ethyl-4-((4-(3-fluoro-4-(trifluoromethoxy)phenyl)-3,4-dihydro-2H-pyrano[3,2-b]pyridin-4-yl)carbamoyl)benzoic acid] | 15 | 97
16 | Cc1nc(C(=O)N[C@]2(c3ccc(OC(F)(F)F)c(F)c3)CCOc3cccnc32)ccc1C(=O)O [Example 310, (S)-6-((4-(3-fluoro-4-(trifluoro-methoxy)phenyl)-3,4-dihydro-2H-pyrano[3,2-b]pyridin-4-yl)carbamoyl)-2-methylnicotinic acid] | 8 | 98
17 | O=C(O)c1ccc(C(=O)N[C@]2(c3ccc(C(F)(F)F)c(F)c3)CCOc3cccnc32)nc1 [Example 313, (S)-6-((4-(3-fluoro-4-(trifluoro-methyl)phenyl)-3,4-dihydro-2H-pyrano[3,2-b]pyridin-4-yl)carbamoyl) nicotinic acid] | 14 | 99
18 | COc1cc(C(=O)O)ccc1C(=O)N[C@]1(c2ccc(OC(F)(F)F)c(F)c2)CCOc2cccnc21 [Example 314, (S)-4-((4-(3-fluoro-4-(trifluoromethoxy)phenyl)-3,4-dihydro-2H-pyrano[3,2-b]pyridin-4-yl)carbamoyl)-3-methoxybenzoic acid] | 4 | 99
19 | O=C(N[C@]1(c2ccc(OC(F)(F)F)c(F)c2)CCOc2cccnc21)c1ccc(C(=O)O)nc1 [Example 328, (S)-5-((4-(3-fluoro-4-(trifluoro-methoxy)phenyl)-3,4-dihydro-2H-pyrano[3,2-b]pyridin-4-yl)carbamoyl) picolinic acid 2,2,2-trifluoroacetate] | 1560 | –
20 | O=C(N[C@]1(c2ccc(OC(F)(F)F)c(F)c2)CCOc2cccnc21)c1csc(C(=O)O)n1 [Example 329, (S)-4-((4-(3-fluoro-4-(trifluoro-methoxy)phenyl)-3,4-dihydro-2H-pyrano[3,2-b]pyridin-4-yl)carbamoyl) thiazole-2-carboxylic acid] | 231 | –
21 | O=C(O)c1ccnc(C(=O)N[C@]2(c3ccc(OC(F)(F)F)c(F)c3)CCOc3cccnc32)c1 [Example 330, (S)-2-((4-(3-fluoro-4-(trifluoro-methoxy)phenyl)-3,4-dihydro-2H-pyrano[3,2-b]pyridin-4-yl)carbamoyl) isonicotinic acid] | 94 | –
22 | O=C(N[C@]1(c2ccc(OC(F)(F)F)c(F)c2)CCOc2cccnc21)c1ccc(C(=O)O)c(F)c1 [Example 331, (S)-2-fluoro-4-((4-(3-fluoro-4-(trifluoromethoxy)phenyl)-3,4-dihydro-2H-pyrano[3,2-b]pyridin-4-yl)carbamoyl) benzoic acid] | 34 | –
23 | Cc1cc(C(=O)N[C@]2(c3ccc(OC(F)(F)F)c(F)c3)CCOc3cccnc32)ncc1C(=O)O [Example 333, (S)-6-((4-(3-fluoro-4-(trifluoromethoxy)phenyl)-3,4-dihydro-2H-pyrano[3,2-b]pyridin-4-yl)carbamoyl)-4-methylnicotinic acid] | 25 | –
24 | O=C(O)c1c[nH]c(C(=O)N[C@]2(c3ccc(OC(F)(F)F)c(F)c3)CCOc3cccnc32)c1 [Example 334, (S)-5-((4-(3-fluoro-4-(trifluoromethoxy)phenyl)-3,4-dihydro-2H-pyrano[3,2-b]pyridin-4-yl)carbamoyl)-1H-pyrrole-3-carboxylic acid] | 1010 | –
25 | Cn1cc(C(=O)O)cc1C(=O)N[C@]1(c2ccc(OC(F)(F)F)c(F)c2)CCOc2cccnc21 [Example 335, (S)-5-((4-(3-fluoro-4-(trifluoromethoxy)phenyl)-3,4-dihydro-2H-pyrano[3,2-b]pyridin-4-yl)carbamoyl)-1-methyl-1H-pyrrole-3-carboxylic acid] | 51 | –
26 | O=C(O)c1ccc(C(=O)N[C@]2(c3ccc(OC(F)(F)F)c(F)c3)CCOc3cccnc32)s1 [Example 336, (S)-5-((4-(3-fluoro-4-(trifluoromethoxy)phenyl)-3,4-dihydro-2H-pyrano[3,2-b]pyridin-4-yl)carbamoyl) thiophene-2-carboxylic acid 2,2,2-trifluoroacetate] | 86 | –
27 | COc1cc(C(=O)N[C@]2(c3ccc(OC(F)(F)F)c(F)c3)CCOc3cccnc32)ccc1C(=O)O [Example 337, (S)-4-((4-(3-fluoro-4-(trifluoromethoxy)phenyl)-3,4-dihydro-2H-pyrano[3,2-b]pyridin-4-yl)carbamoyl)-2-methoxybenzoic acid] | 70 | –
